These results are taken from US20050009840A1 (SUGEN, INC., priority 2003, published 2005).

T1 sequence (P08581 974-1390 limits assumed): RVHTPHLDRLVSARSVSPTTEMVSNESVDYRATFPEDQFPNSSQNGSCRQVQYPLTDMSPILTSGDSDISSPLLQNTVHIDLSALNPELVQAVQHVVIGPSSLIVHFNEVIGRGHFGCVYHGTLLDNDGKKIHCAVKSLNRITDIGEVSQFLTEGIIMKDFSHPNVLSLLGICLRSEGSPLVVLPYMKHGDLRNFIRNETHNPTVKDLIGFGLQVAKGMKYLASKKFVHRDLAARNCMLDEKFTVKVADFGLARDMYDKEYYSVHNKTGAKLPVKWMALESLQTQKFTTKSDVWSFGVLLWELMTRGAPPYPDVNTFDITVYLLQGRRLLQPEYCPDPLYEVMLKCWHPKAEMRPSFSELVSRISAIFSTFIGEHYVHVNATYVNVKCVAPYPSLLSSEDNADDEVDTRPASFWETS

The first experiment addresses T1, HGFR (Homo sapiens, UniProt P08581).
T1 construct: purchased Upstate 14-526
The experiment can be described thus: HGFR continuous-coupled spectrophotometric assay. It counts as biochemical. The following applies: at 1 μM; Table 8, library procedure 43; read-out: % Inhibition (percent c-MET inhibition).
As a reminder, the inhibition is the percentage by which the read-out fell short of the control. On to `CC1CN(C(=O)c2ccc(-c3cnc(N)c(OCc4cccc(C#N)c4)c3)cc2)CC(C)N1` (centres unmarked), for which the inhibition at 1 µM was 11%.

As to `CC1CN(C(=O)c2ccc(-c3cnc(N)c(OCc4ccc(C(=O)N5CCN(Cc6ccccc6)CC5)cc4)c3)cc2)CC(C)N1` (centres unmarked), the inhibition at 1 µM is 15%.

Turning to `CC1CN(C(=O)c2ccc(-c3cnc(N)c(OCc4cccc(C(=O)NCCc5ccccn5)c4)c3)cc2)CC(C)N1` (centres unmarked), the inhibition at 1 µM came out at 18%.

As to `CC1CN(C(=O)c2ccc(-c3cnc(N)c(OCc4cccc(C(=O)NC5CCN(Cc6ccccc6)C5)c4)c3)cc2)CC(C)N1` (centres unmarked), the inhibition at 1 µM is 18%.

On to `CC1CN(C(=O)c2ccc(-c3cnc(N)c(OCc4ccc(C(=O)NCCc5ccccn5)cc4)c3)cc2)CC(C)N1` (centres unmarked), for which the inhibition at 1 µM was found to be 19%.

Regarding `CC1CN(C(=O)c2ccc(-c3cnc(N)c(OCc4ccc(C(=O)NCCN5CCCC5)cc4)c3)cc2)CC(C)N1` (centres unmarked), the inhibition at 1 µM came out at 12%.

Consider `CCN1CCCC1CNC(=O)c1cccc(COc2cc(-c3ccc(C(=O)N4CC(C)NC(C)C4)cc3)cnc2N)c1` (centres unmarked), for which the inhibition at 1 µM stood at 10%.

Staying with this experiment, now noted: cells prefixed Ki; read-out: Met Ki.
One may read the Ki as a measure of affinity in units of concentration, obtained from inhibition or displacement. Consider `CC(Oc1cc(C#CC(C)(C)NC(=O)N2CCN(C)CC2)cnc1N)c1c(Cl)ccc(F)c1Cl` (centres unmarked) [Example I-432, 4-Methyl-piperazine-1-carboxylic acid (3-{6-amino-5-[1-(2,6-dichloro-3-fluoro-phenyl)-ethoxy]-pyridin-3-yl}-1,1-dimethyl-prop-2-ynyl)-amide], for which the inhibition constant (Ki) came to 0.61 µM.

On to `CC(Oc1cc(C#CC(C)(C)NC(=O)N2C[C@@H](C)N[C@@H](C)C2)cnc1N)c1c(Cl)ccc(F)c1Cl` (stereo partly drawn) [Example I-433, (3R,5S)-3,5-Dimethyl-piperazine-1-carboxylic acid (3-{6-amino-5-[1-(2,6-dichloro-3-fluoro-phenyl)-ethoxy]-pyridin-3-yl}-1,1-dimethyl-prop-2-ynyl)-amide], for which the Ki amounted to 1.5 µM.

As for `CC(Oc1cc(C#CC(C)(C)NC(=O)N2CCC[C@@H]2CN2CCCC2)cnc1N)c1c(Cl)ccc(F)c1Cl` (stereo partly drawn) [Example I-434, (R)-2-Pyrrolidin-1-ylmethyl-pyrrolidine-1-carboxylic acid (3-{6-amino-5-[1-(2,6-dichloro-3-fluoro-phenyl)-ethoxy]-pyridin-3-yl}-1,1-dimethyl-prop-2-ynyl)-amide], the Ki turned out to be 1.22 µM.

In the case of `CC(Oc1cc(C#CC(C)(C)NC(=O)N2CCC[C@H]2CN2CCCC2)cnc1N)c1c(Cl)ccc(F)c1Cl` (stereo partly drawn) [Example I-435, (S)-2-Pyrrolidin-1-ylmethyl-pyrrolidine-1-carboxylic acid (3-{6-amino-5-[1-(2,6-dichloro-3-fluoro-phenyl)-ethoxy]-pyridin-3-yl}-1,1-dimethyl-prop-2-ynyl)-amide], the Ki was 1.58 µM.

On to `CC(Oc1cc(C#CC(C)(C)NC(=O)NCCN2CCOCC2)cnc1N)c1c(Cl)ccc(F)c1Cl` (centres unmarked) [Example I-436, 1-(3-{6-Amino-5-[1-(2,6-dicloro-3-fluoro-phenyl)-ethoxy]-pyridin-3-yl}-1,1-dimethyl-prop-2-ynyl)-3-(2-morpholin-4-yl-ethyl)-urea], for which the Ki stood at 1.11 µM.

Turning to `CC(Oc1cc(C#CC(C)(C)NC(=O)NCCN2CCCC2)cnc1N)c1c(Cl)ccc(F)c1Cl` (centres unmarked) [Example I-437, 1-(3-{6-Amino-5-[1-(2,6-dicloro-3-fluoro-phenyl)-ethoxy]-pyridin-3-yl}-1,1-dimethyl-prop-2-ynyl)-3-(2-pyrrolidin-1-yl-ethyl)-urea], the Ki amounted to 0.61 µM.

`CC(Oc1cc(C#CC(C)(C)NC(=O)N2CCC(N3CCCC3)CC2)cnc1N)c1c(Cl)ccc(F)c1Cl` (centres unmarked) [Example I-438, 4-Pyrrolidin-1-yl-pipendine-1-carboxylic acid (3-{6-amino-5-[1-(2,6-dichloro-3-fluoro-phenyl)-ethoxy]-pyridin-3-yl}-1,1-dimethyl-prop-2-ynyl)-amide]: the Ki is 0.72 µM.

Take `CC(Oc1cc(C#CC(=O)NC2CCCCC2)cnc1N)c1c(Cl)ccc(F)c1Cl` (centres unmarked) [Example I-439, 3-{6-Amino-5-[1-(2,6-dichloro-3-fluoro-phenyl)-ethoxy]-pyridin-3-yl}-propynoic acid cyclohexylamide]: the Ki came out at 0.46 µM.

For the compound `CC(C)NC(=O)C#Cc1cnc(N)c(OC(C)c2c(Cl)ccc(F)c2Cl)c1` (centres unmarked) [Example I-440, 3-{6-Amino-5-[1-(2,6-dichloro-3-fluoro-phenyl)-ethoxy]-pyridin-3-yl}-propynoic acid isopropylamide], the inhibition constant (Ki) worked out at 0.43 µM.

On to `CC(Oc1cc(C#CC(C)(C)N)ccc1N)c1c(Cl)ccc(F)c1Cl` (centres unmarked) [Example I-441, 4-(3-Amino-3-methyl-but-1-ynyl)-2-[1-(2,6-dichloro-3-fluoro-phenyl)-ethoxy]-phenylamine], for which the Ki is 1.06 µM.

With `C=Cc1cnc(N)c(OC(C)c2c(Cl)ccc(F)c2Cl)c1` (centres unmarked) [Example I-461, 3-[1-(2,6-Dichloro-3-fluoro-phenyl)-ethoxy]-5-vinyl-pyridin-2-ylamine], the Ki turned out to be 0.68 µM.

Consider `CC(Oc1cc(-c2cnn(CCN3CCCC3)c2)cnc1N)c1c(Cl)ccc(F)c1Cl` (centres unmarked) [Example I-465, 3-[1-(2,6-Dichloro-3-fluoro-phenyl)-ethoxy]-5-[1-(2-pyrrolidin-1-yl-ethyl)-1H-pyrazol-4-yl]-pyridin-2-ylamine], for which the Ki came to 0.34 µM.

On to `CC(Oc1cc(-c2cnn(CCN(C(C)C)C(C)C)c2)cnc1N)c1c(Cl)ccc(F)c1Cl` (centres unmarked) [Example I-466, 3-[1-(2,6-Dichloro-3-fluoro-phenyl)-ethoxy]-5-[1-(2-diisopropylamino-ethyl)-1H-pyrazol-4-yl]-pyridin-2-yl amine], for which the Ki turned out to be 0.47 µM.

Consider `CC(Oc1cc(-c2cnn(CCN3CCOCC3)c2)cnc1N)c1c(Cl)ccc(F)c1Cl` (centres unmarked) [Example I-467, 3-[1-(2,6-Dichloro-3-fluoro-phenyl)-ethoxy]-5-[1-(2-morpholin-4-yl-ethyl)-1H-pyrazol-4-yl]-pyridin-2-ylamine], for which the Ki was determined as 0.083 µM.

For `CC(C)Oc1c(F)cccc1COc1cc(Br)cnc1N` [Example I-472, 5-Bromo-3-(3-fluoro-2-isopropoxy-benzyloxy)-pyridin-2-ylamine], the Ki was 12.1 µM.

Take `CC(C)Oc1c(F)cccc1COc1cc(-c2ccc(C(=O)N3C[C@@H](C)N[C@@H](C)C3)cc2)cnc1N` [Example I-473, {4-[6-Amino-5-(3-fluoro-2-isopropoxy-benzyloxy)-pyridin-3-yl]-phenyl}-((3R,5S)-3,5-dimethyl-piperazin-1-yl)-methanone]: the inhibition constant Ki was 12.7 µM.

For `COC(=O)COc1ccc(-c2cnc(N)c(OC(C)c3c(Cl)ccc(F)c3Cl)c2)cc1` (centres unmarked) [Example I-475, (4-{6-Amino-5-[1-(2,6-dichloro-3-fluoro-phenyl)-ethoxy]-pyridin-3-yl}-phenoxy)-acetic acid methyl ester], the Ki was 0.2 µM.

With `CC(Oc1cc(-c2ccc(OCC(=O)O)cc2)cnc1N)c1c(Cl)ccc(F)c1Cl` (centres unmarked) [Example I-476, (4-{6-Amino-5-[1-(2,6-dichloro-3-fluoro-phenyl)-ethoxy]-pyridin-3-yl}-phenoxy)-acetic acid], the inhibitory constant (Ki) is 0.2 µM.

With `CC(Oc1cc(-c2ccc(OCC(=O)N3C[C@@H](C)N[C@@H](C)C3)cc2)cnc1N)c1c(Cl)ccc(F)c1Cl` (stereo partly drawn) [Example I-477, 2-(4-{6-Amino-5-[1-(2,6-dichloro-3-fluoro-phenyl)-ethoxy]-pyridin-3-yl}-phenoxy)-1-((3R,5S)-3,5-dimethyl-piperazin-1-yl)-ethanone], the Ki was found to be 0.027 µM.
